Experimental data reported in patent US12673915B2, “Precursor compound of hexahydro-beta-acid component compound, feed composition and use thereof” (WISORIG TECHNOLOGIES PTE. LIMITED, priority 2020, dated 2026).

Key:
[1] = system: Duroc×Landrace×Yorkshire cross-bred bacon-type piglets; test: Effect on the production performance of hogs (14-day feeding trial); assay type: in vivo; conditions: 25 ppm in feed; for ADFI (average daily feed intake) / ADG (average daily weight gain) / FCR (feed conversion ratio): 14 days, piglets
Excerpt: 480 67-day-old Duroc×Landrace×Yorkshire cross-bred bacon-type piglets with similar body weight, were randomly divided into 16 groups, with 3 replications per group, 10 piglets per replication and equal amounts of males and females. The pig pen and tools were sterilized before the trial. In the trial, the piglets were kept in separate regions in the same pig pen under the same feeding and management conditions, were given a free hand with the feed and the water, and were fed twice a day. The groups were known as control group (group 1) and test groups 2 to 16. The piglets of the control group were fed with basal formula feed only, while those of the test groups 2 to 16 were respectively fed with basal formula feed mixed with different additives, wherein the active ingredient of the additives was a hexahydro-β-acid compound or a prodrug of a hexahydro-β-acid compound provide herein, and the content thereof in the feed was 5 or 25 ppm as shown in Table 4.
The trial lasted for 14 days. During the trial, each test group was not fed with other antioxidants or growth enhancers. On the 14th day, each test group was fed with no feed but water for 12 hours, and the piglets of each replication as one unit were weighed to calculate the average daily feed intake (ADFI, g/d per piglet), the average daily weight gain (ADG, g/d per piglet), and the feed conversion ratio (FCR). Average daily feed intake=(Total weight of provided feed−Weight of residual feed)/(Days of the trial×Number of piglets in each replicate) Average daily weight gain=(final average body weight−initial average body weight)/Days of the trial Feed conversion ratio=average daily feed intake/average daily weight gain

[2] = Long-term stability in feeds at room temperature (25° C.±2° C., RH 60%±10%; HPLC); assay type: physicochemical
Excerpt: Feeds: ZUSF's premixed feed (A mixture of crushed Feed A and crushed Feed B at a weight ratio of 2:1, wherein Feed A was a 5.33% multi-premixed feed for piglets from ZUSF's Hao-Ru-Zhen-Jing, and B was a 2.67% multi-premixed feed for piglets from ZUSF's Hao-Ru-Zhen-Jing); creep feed for piglets from CP FEED; INSIGHTER's feed for broiler; 4% premixed feed from GUANGDONG CO-POWER.
Preparation of a sample of 1% premix of Ingredient: 1 g of an ingredient was respectively weighed out and evenly mixed with 99 g of corncob meal in a mixer to give a sample of 1% premix of an ingredient.
Preparation of a sample of 500 ppm feed of an ingredient: The sample of 1% premix of an ingredient was diluted step by step using the ZUSF's remixed feed to 5000 ppm and 500 ppm to give the sample of 500 ppm feed of an ingredient for later testing.
Preparation of a sample of 100 ppm feed of an ingredient: sample of 1% premix of an ingredient was diluted step by step using the creep feed for piglets from CP FEED to 1000 ppm and then 100 ppm to give the sample of 100 ppm feed of an ingredient for later testing.
Preparation of a sample of 100 ppm feed of an ingredient: The sample of 1% premix of an ingredient was diluted step by step using the INSIGHTER's feed for broiler to 1000 ppm and 100 ppm to give the sample of 100 ppm feed of an ingredient for later testing.
Preparation of a sample of 2000 ppm feed of an ingredient: The sample of 1% premix of an ingredient was diluted step by step using the 4% premixed feed from GUANGDONG CO-POWER to 5000 ppm and 2000 ppm to give the sample of 2000 ppm feed of an ingredient for later testing.
Method: Three replications of each feed sample were tested at the condition of 25° C.±2° C. and RH 60%±10%, wherein the replications of each feed sample were sampled in parallel for HPLC analysis on day 5, day 10, day 15, day 30, day 60, and day 90.
25.0 mg of an ingredient was accurately weighed out and dissolved in an appropriate amount of methanol or n-hexane by ultrasonication. The solution was then transferred to a volumetric flask and diluted to 50 mL to give a 500 ppm (by wt.) stock solution. The samples from the stock solution were diluted with methanol or n-hexane respectively to a concentration of 10 ppm, 25 ppm, 50 ppm, 100 ppm, and 250 ppm of work solution, and then the working solutions were filtered by 0.22 μm organic membranes. Between the concentration of a sample and the response value of HPLC peak area thereof, the linearity was adjusted and detected to give a standard curve.
5.0000 g of the samples sampled at different time intervals were respectively accurately weighed out, and dissolved in 25 mL of methanol or n-hexane by ultrasonication for 10 minutes. The resulting solutions were filtered by organic membranes and then analyzed by HPLC.
• Equipment: Waters e2695 with PDA detector. • Mobile phase: 0.02% phosphoric acid:methanol=5:95 (v:v). • Column: Symmetry Cis column (Waters; 250 mm×4.6 mm, 5 μm). • Wavelength: 235 nm. • Temperature of the Column: 25° C. • Injection volume: 10 μL. • Flow rate: 1 mL/min. Normal Phase Chromatography: • Equipment: Shimadzu LC-14C/SPD-15C. • Column: SuperSil NH2 column ([…]; 250 mm×4.6 mm). • Mobile phase: n-hexane:isopropanol=60:40 (v:v). • Wavelength: 235 nm. • Temperature of the Column: 25° C. • Injection volume: 20 μL. • Flow rate: 1 mL/min. 3: Results

[3] = 100 ppm in INSIGHTER's broiler feed, Day 5
[4] = 100 ppm in INSIGHTER's broiler feed, Day 15
[5] = 100 ppm in INSIGHTER's broiler feed, Day 30
[6] = 100 ppm in INSIGHTER's broiler feed, Day 60
[7] = 100 ppm in INSIGHTER's broiler feed, Day 90
[8] = 100 ppm in creep feed for piglets from CP FEED, Day 5
[9] = 100 ppm in creep feed for piglets from CP FEED, Day 15
[10] = 100 ppm in creep feed for piglets from CP FEED, Day 30
[11] = 100 ppm in creep feed for piglets from CP FEED, Day 60
[12] = 100 ppm in creep feed for piglets from CP FEED, Day 90

Residual amount of active ingredient [2, 3] [%]	Residual amount of active ingredient [2, 4] [%]	Residual amount of active ingredient [2, 5] [%]	Residual amount of active ingredient [2, 6] [%]	Compound	ADFI (average daily feed intake) [1] [g/d per piglet]	ADG (average daily weight gain) [1] [g/d per piglet]	FCR (feed conversion ratio) [1]	also measured
				CCCC(=O)OC1=C(CCC(C)C)C(=O)C(CCC(C)C)(CCC(C)C)C(O)=C1C(=O)C(C)CC (centres unmarked) [Hexahydro-adlupulone mono-butyrate, hexahydro-adlupulone mono-butyrate]	883	398	2.221	
				CCC(=O)OC1=C(CCC(C)C)C(=O)C(CCC(C)C)(CCC(C)C)C(O)=C1C(=O)C(C)CC (centres unmarked) [Hexahydro-adlupulone mono-propionate, hexahydro-adlupulone mono-propionate]	876	393	2.228	
				CCC(C)C(=O)C1=C(O)C(CCC(C)C)(CCC(C)C)C(=O)C(CCC(C)C)=C1O (centres unmarked) [Hexahydro-adlupulone, reference compound]	860	384	2.240	
				CCCC(=O)OC1=C(CCC(C)C)C(=O)C(CCC(C)C)(CCC(C)C)C(OC(=O)CCC)=C1C(=O)C(C)C [Hexahydro-colupulone di-butyrate, hexahydro-colupulone di-butyrate]	950	413	2.298	
				CCC(=O)OC1=C(CCC(C)C)C(=O)C(CCC(C)C)(CCC(C)C)C(OC(=O)CC)=C1C(=O)C(C)C [Hexahydro-colupulone di-propionate, hexahydro-colupulone di-propionate]	926	415	2.231	
99.63	99.65	99.68	98.68	CCCCCCCCCCCC(=O)OC1=C(CCC(C)C)C(=O)C(CCC(C)C)(CCC(C)C)C(O)=C1C(=O)C(C)C [hexahydro-colupulone mono-laurate]	918	383	2.399	effects on the performance of piglets compared with mono-acetate and mono-butyrate (in words) [1]: not as significant; Residual amount of active ingredient [2, 7]: 98.47%; Residual amount of active ingredient ([2]; 1000 ppm in INSIGHTER's broiler feed, Day 5): 101.19%; Residual amount of active ingredient ([2]; 1000 ppm in INSIGHTER's broiler feed, Day 15): 101.72%; Residual amount of active ingredient ([2]; 1000 ppm in INSIGHTER's broiler feed, Day 30): 98.60%; Residual amount of active ingredient ([2]; 1000 ppm in INSIGHTER's broiler feed, Day 60): 97.85%; Residual amount of active ingredient ([2]; 1000 ppm in INSIGHTER's broiler feed, Day 90): 95.26%
86.64	83.77	81.32	76.53	disodium salt of hexahydro-colupulone mono-phosphate [reference compound]				Residual amount of active ingredient [2, 7]: 62.97%; Residual amount of active ingredient [2, 8]: 66.59%; Residual amount of active ingredient [2, 9]: 58.39%; Residual amount of active ingredient [2, 10]: 55.80%; Residual amount of active ingredient [2, 11]: 47.76%; Residual amount of active ingredient [2, 12]: 44.33%
98.84	98.12	97.73	96.64	hexahydro-colupulone mono-pentanoate				Residual amount of active ingredient [2, 8]: 100.94%; Residual amount of active ingredient [2, 9]: 98.82%; Residual amount of active ingredient [2, 10]: 96.92%; Residual amount of active ingredient [2, 11]: 96.01%; Residual amount of active ingredient [2, 12]: 95.61%; Residual amount of active ingredient ([2]; 500 ppm in ZUSF's premixed feed, Day 15): 94.29%; Residual amount of active ingredient ([2]; 500 ppm in ZUSF's premixed feed, Day 30): 94.80%; Residual amount of active ingredient ([2]; 500 ppm in ZUSF's premixed feed, Day 60): 88.17%; Residual amount of active ingredient ([2]; 500 ppm in ZUSF's premixed feed, Day 90): 89.14%; stability / content in feeds at room temperature (in words) ([2]; during the testing period): relatively poor in some of the feeds
